Reference: PMC9733678, “Combining drug salt formation with amorphous solid dispersions – a double edged sword” (Journal of Controlled Release, 2022)

Experiments:
[1] = Water sorption analysis of amorphous lumefantrine salts (DVS); format: physicochemical; details: neat amorphous salt; for weight gain (water sorption): 95% RH
Protocol: Water sorption profiles of the amorphous lumefantrine salts were measured using a DVS Adventure water vapor sorption analyzer (Surface Measurement Systems, Wembley, UK). Powdered salt (5–10 mg) was dried at 0% RH in the instrument for 120 min. After drying, the RH within the chamber was increased from 5% to 95% at a 5% step interval. The equilibrium criterion was a percent weight change over time (% dm/dt) of <0.002%/min for 10 min. Nitrogen was used as the purging gas.

[2] = Physical stability, open dish 40 °C/75% RH, monitored by PXRD; format: physicochemical; details: neat amorphous salt
Protocol: PXRD patterns of the lumefantrine salts and salt ASDs were collected using an X-ray diffractometer (Rigaku SmartLab, Rigaku Americas, The Woodlands, TX) operating at 40 kV and […] in Bragg–Brentano mode with a Cu-kα radiation source and D/tex ultra detector. Each sample was spread thinly on a glass sample holder. Data was collected from 4 to 40° 2θ using a step size of 0.02° and a scan rate of 4°/min.
To assess the physical stability of the salts and salt ASDs, the samples were stored in open dish accelerated stability conditions of 40 °C/ 75% RH. At pre-determined time intervals, the samples were removed and their PXRD patterns collected.

[3] = parameters: method as in PMID 10468018; details: amorphous salt; cited from earlier work
[4] = Thermal analysis (DSC), onset glass transition temperature; format: physicochemical; details: for Tg (glass transition temperature) of neat amorphous material: DSC
Protocol: A Q2000 differential scanning calorimeter (DSC; Q2000, TA Instruments, New Castle, DE) connected to an RCS 90 refrigerated cooling system (TA Instruments, New Castle, DE) was used to analyze the lumefantrine salts and salt ASDs. The thermal properties of lumefantrine free base, lumefantrine free base ASDs, and neat PVPVA were also analyzed. The purging gas used was dry nitrogen (50 mL/min flow rate). Temperature calibration of the DSC was performed using indium and tin, while indium was used for enthalpy calibration. Each sample (5–10 mg) was carefully weighed and sealed in a Tzero aluminum sample pan (TA Instruments, New Castle, DE). The procedure to obtain the sample Tg is as follows: equilibration at −10 °C, followed by heating with a modulation of ±0.636 °C every 40 s at 3 °C/min to the temperature of interest. The samples were then cooled to −10 °C at 10 °C/min and reheated at 5 °C/min. The first heating cycle was used to remove thermal history associated with the samples, while the second cycle was used to obtain the sample Tg.

[5] = parameters: method as in PMID 32134677; details: PVPVA ASD; cited from earlier work
[6] = parameters: method as in PMID 23763957; details: cited from earlier work
[7] = parameters: method as in PMID 24189249; details: cited from earlier work

Compound: CCCCN(CCCC)CC(O)c1cc(Cl)cc2c1-c1ccc(Cl)cc1C2=Cc1ccc(Cl)cc1.Cl (centres unmarked) [HCl salt, Lumefantrine HCl]
- weight gain (water sorption) [1]: < 2%
- time re-crystallization was resisted [2]: at least 16 weeks

Compound: COc1ccc2c(c1)c(CC(=O)[O-])c(C)n2C(=O)c1ccc(Cl)cc1.[Na+] [Na indomethacin]
- Tg higher than indomethacin free acid [3]: ~75 °C

Compound: CCCCN(CCCC)CC(O)c1cc(Cl)cc2c1-c1ccc(Cl)cc1/C2=C/c1ccc(Cl)cc1.O=C(O)c1ccccc1 (centres unmarked) [benzoate salt, Lumefantrine benzoate]
- weight gain (water sorption) [1]: < 2%
- storage time at which crystalline peaks were observed [2]: ≤ 4 weeks
- elevation in Tg relative to the free base ([4]; neat amorphous salt): ~10 °C

Compound: CCCCN(CCCC)CC(O)c1cc(Cl)cc2c1-c1ccc(Cl)cc1C2=Cc1ccc(Cl)cc1.O=S(=O)(O)c1ccccc1 (centres unmarked) [besylate salt, Lumefantrine besylate]
- weight gain (water sorption) [1]: < 2%
- storage time at which crystalline peaks were observed [2]: ≤ 4 weeks

Compound: CC1(C)[C@@H]2CC[C@@]1(CS(=O)(=O)O)C(=O)C2.CCCCN(CCCC)CC(O)c1cc(Cl)cc2c1-c1ccc(Cl)cc1/C2=C/c1ccc(Cl)cc1 (centres unmarked) [camsylate salt, Lumefantrine camsylate]
- weight gain (water sorption) [1]: < 2%
- storage time at which crystalline peaks were observed [2]: 32 weeks

Compound: COc1ccc2c(c1)c(CC(=O)O)c(C)n2C(=O)c1ccc(Cl)cc1 [indomethacin]
- limit of congruency (LoC) [5]: 10%

Compound: CCCCN(CCCC)CC(O)c1cc(Cl)cc2c1-c1ccc(Cl)cc1/C2=C/c1ccc(Cl)cc1 (centres unmarked) [lumefantrine, reference compound]
- pKa of tertiary amine [6]: 8.73
- log P [7]: 8.34
- Tg (glass transition temperature) of neat amorphous material [4]: 19.7 °C
- Tg (glass transition temperature) of neat amorphous material ([4]; listed as free base): 20 °C

Compound: CCCCN(CCCC)CC(O)c1cc(Cl)cc2c1-c1ccc(Cl)cc1/C2=C/c1ccc(Cl)cc1.CCCCN(CCCC)CC(O)c1cc(Cl)cc2c1-c1ccc(Cl)cc1/C2=C/c1ccc(Cl)cc1.O=S(=O)(O)O (centres unmarked) [sulfate salt, Lumefantrine sulfate]
- weight gain (water sorption) [1]: 3.3%
- time re-crystallization was resisted [2]: at least 16 weeks
- Tg (glass transition temperature) of neat amorphous material [4]: 101 °C

Compound: CCCCN(CCCC)CC(O)c1cc(Cl)cc2c1-c1ccc(Cl)cc1C2=Cc1ccc(Cl)cc1.Cc1ccc(S(=O)(=O)O)cc1 (centres unmarked) [tosylate salt, Lumefantrine tosylate]
- weight gain (water sorption) [1]: < 2%

Compound: Lumefantrine PEG 250 diacid [PEG 250 diacid (1:1) salt]
- appearance after exposure to 95% RH [1]: liquified
- increase in weight (water sorption) ([1]; 90% RH): 5.1%
- weight gain (water sorption) [1]: 6.6%

Compound: Lumefantrine PEG 250 diacid [PEG 250 diacid (2:1) salt]
- storage time at which crystalline peaks were observed [2]: ≤ 4 weeks
